Measurements: PubChem BioAssay AID1996
Converted amounts (≈) assume the structure as drawn.

settings: buffer; pH 7.4; 200.0 µM

Structure (SMILES) | solubility kinetic [µg/mL]
Cn1c(=O)n(C)c2cc(NS(=O)(=O)c3ccccc3)ccc21 | 35.5 (≈ 112 µM)
Cc1cccc(CSc2ncnc3ccccc23)c1 | 0.4 (≈ 1.5 µM)
O=C(COC(=O)c1cccnc1)Nc1cccc2ccccc12 | 42.1 (≈ 137 µM)
COc1ccccc1CCC(=O)OCC(=O)NC1CCCC1 | > 45.8
O=C(C[n+]1ccccn1)c1ccccc1.[Br-] | > 41.9
O=C(Nc1ccc(O)cc1)N1CCOCC1 | > 33.3
COc1cccc(Oc2ccc(S(=O)(=O)N3CCOCC3)cc2[N+](=O)[O-])c1 | 11 (≈ 27.9 µM)
NCCc1c[nH]c2ccc(OCc3ccccc3)cc12 | 7.8 (≈ 29.3 µM)
COc1ccc(CCNC(=S)NC(=O)c2ccccc2)cc1C | 0.8 (≈ 2.44 µM)
COc1ccccc1OCC#CCSc1ncccn1 | > 43
Cc1cc(OC(=O)N(C)C)nc(SCc2c(Cl)cccc2Cl)n1 | 6.5 (≈ 17.5 µM)
CCN1C(=O)/C(=C2\SC(N3CCOCC3)=NC2=O)c2ccccc21 | 0.9 (≈ 2.62 µM)
CCN(C(=O)c1ccco1)C1C2CC3CC(C2)CC1C3 (centres undefined) | 26.1 (≈ 95.5 µM)
Cc1cccc(C)c1NC(=O)CN1C(=O)COc2ccccc21 | 6 (≈ 19.3 µM)
Nc1cc(=O)[nH]c(SCC(=O)Nc2cccc(S(=O)(=O)N3CCCCC3)c2)n1 | > 63.5
Cc1ccc[n+](Cc2ccc([N+](=O)[O-])cc2)c1.[Br-] | > 46.4
C=CCn1c(O)c(C(C)=NCCCn2ccnc2)c(=O)[nH]c1=O | > 47.6
Cn1c(C(=O)O)ccc1S(=O)(=O)N1CCCCCC1 | > 43
CC1CCCCC12NC(=O)N(CC(=O)NCc1ccccc1)C2=O (centres undefined) | > 49.4
CC(C)Oc1ccc(C(=O)OC(C)C(=O)NC2CCCCC2C)cc1 (centres undefined) | 4.4 (≈ 12.7 µM)
Cc1ccc(Cl)cc1NS(=O)(=O)Cc1ccccc1 | 9 (≈ 30.4 µM)
CC(C)(C)Cc1nnc(NC(=O)c2ccco2)s1 | > 39.8
Cc1cc(C(=O)Nc2ccccc2[N+](=O)[O-])cs1 | 1.6 (≈ 6.1 µM)
CC(=O)Nc1ccc(-c2nc3ccccc3c(=O)o2)cc1 | 0.5 (≈ 1.78 µM)

Structure (SMILES) | solubility kinetic [µg/mL]
Nn1c(SCC(=O)NCC2CCCO2)nnc1-c1ccco1 (centres undefined) | > 48.5
N#CC(=C=[N-])c1nc2ccccc2nc1-[n+]1cccc(NC(=O)c2cccs2)c1 | 1.5 (≈ 3.78 µM)
O=c1[nH]c(N2CCCCCC2)nc2ncn(Cc3ccccc3)c12 | 13 (≈ 40.2 µM)
Cc1ccc(CC2C(=O)N(c3ccc(F)cc3)C(=O)C2C)cc1 (centres undefined) | 3.3 (≈ 10.6 µM)
c1ccc(C2CN3CCC2CC3)cc1 (centres undefined) | > 28.1
CC(=O)c1ccc(-n2ccc(=O)cc2)cc1 | > 32
CC(COc1ccccc1)N(CCCl)Cc1ccccc1.Cl (centres undefined) | 45.8
COc1cccc(NC(=O)C(=S)NC2CCCCC2)c1 | 1.3 (≈ 4.45 µM)
Cc1cccc(C)c1NC(=O)COC(=O)[C@@H]1CCCN1C(=O)c1cccs1 | > 58
COC(=O)[C@H](c1ccccc1Cl)N1CCc2sccc2C1 | 15.1 (≈ 46.9 µM)
Cc1cc(SCc2ccc(F)cc2)nc(=O)[nH]1 | 22.1 (≈ 88.3 µM)
Cc1ccc(S(=O)(=O)NCCC(=O)NNc2c(F)c(F)cc(F)c2F)cc1 | > 60.8
Cc1onc(-c2c(F)cccc2Cl)c1C(=O)NCCN1CCNC1=O | > 55
Cc1cccc(C)c1NC(=S)N1CCC(c2ccccc2)C1 (centres undefined) | 34.1 (≈ 110 µM)
Cc1[nH]c(=S)c(C#N)c(C)c1Cc1ccccc1 | 8.6 (≈ 33.8 µM)
Cc1cc(F)ccc1NC(=O)Cn1c(C)csc1=O | > 42
COC(=O)C1(C(C[N+](=O)[O-])c2ccco2)C(=O)NCC1c1ccccc1 (centres undefined) | 11.1 (≈ 31 µM)
Cc1ccc(C(=O)NCC(=O)OCC(=O)NC2CCCCCCC2)cc1 | 53.2 (≈ 148 µM)
NC(=O)c1cccnc1 | 2.8 (≈ 22.9 µM)
CCN(CC)C(=O)Oc1ccc(NC(=O)N2CCOCC2)cc1 | > 48.2
COc1cc2[nH]c(C(=O)N(C)Cc3ccccc3)cc2c(OC)c1OC | 35.7 (≈ 101 µM)
OC(CNCCNc1ncccc1C(F)(F)F)COc1ccc(F)cc1 (centres undefined) | 50.9 (≈ 136 µM)
CC(=O)c1cc(Cl)ccc1OCC(=O)NC1CCCC1 | > 44.4
COc1ccc2c(c1)c(C(C)=O)c(C)n2C | > 32.6

Structure (SMILES) | solubility kinetic [µg/mL]
O=C(COc1ccccc1F)NCCc1ccc2c(c1)OCCO2 | > 49.7
Cc1cc(/C(N)=N/OC(=O)Nc2cccc(C(F)(F)F)c2)no1 | 7.2 (≈ 21.9 µM)
C/C(=C/c1ccccc1)C(=O)N1CCC(C)CC1 | > 36.5
CSc1ccccc1NC(=O)CN(C)C(=O)COc1cccc2cccnc12 | > 59.3
CC(=O)c1ccc(NC(=O)N2CCN(c3ccc(C)cc3)C(C)C2)cc1 (centres undefined) | 39.4 (≈ 112 µM)
Cc1ccc(NC(=O)CCc2ccccc2)cc1S(=O)(=O)N1CCOCC1 | 56.7 (≈ 146 µM)
CCc1ccc2[nH]c(C(=O)Nc3ccc(F)cc3Br)cc2c1 | 0.9 (≈ 2.49 µM)
NC(=O)c1ccsc1NC(=O)CSc1nncs1 | > 45.1
c1ccc(CCNc2nc(-c3ccccn3)nc3ccccc23)cc1 | 31.4 (≈ 96.2 µM)
O=C(NCCNS(=O)(=O)c1ccccc1)c1ccc([N+](=O)[O-])cc1 | 51.1 (≈ 146 µM)
O=C(COc1ccc(Cl)cc1Br)OCC(=O)c1ccc[nH]1 | 6 (≈ 16.1 µM)
O=C(CCCc1c[nH]c2ccccc12)NCc1cccs1 | 41.1 (≈ 138 µM)
Cc1[nH]c2ccccc2c1CN1CCN(c2ccccn2)CC1 | 44.4 (≈ 145 µM)
CCCCNc1nc(Cl)nc(Nc2ccc(C)cc2)n1 | 1.7 (≈ 5.83 µM)
CCN(CC(=O)Nc1ccc(C(C)=O)cc1)CC(=O)Nc1ccc2c(c1)OCCO2.O=C(O)C(=O)O | > 75.2
Cc1cc(=O)[nH]c(SCC(=O)N2CCCCC2)n1 | > 40.1
COc1ccccc1C(=O)C1CCCN(Cc2cnc(C)s2)C1 (centres undefined) | > 49.6
CC(C)N1CCN(Cc2ccc3nsnc3c2)CC1CCO (centres undefined) | > 48.1
COc1ccc(OCC(O)CNC(=O)Nc2cccc3ccccc23)cc1 (centres undefined) | 4.3 (≈ 11.7 µM)
O=C(CCc1ccccc1)NC1CCCc2ccccc21 (centres undefined) | 19.2 (≈ 68.7 µM)
CC(C)(C)C(=O)NC(=S)Nc1cccc(C(=O)O)c1 | > 42.1
CCN(CC)S(=O)(=O)c1cc(NS(=O)(=O)c2cccs2)ccc1C | > 58.3
O=C(Nc1ccc(F)cc1F)c1ccc2ncsc2c1 | 27.4 (≈ 94.4 µM)
COc1ccc(C(=O)O)cc1S(=O)(=O)N1CCN(Cc2ccc3c(c2)OCO3)CC1 | > 65.2

Structure (SMILES) | solubility kinetic [µg/mL]
COC(=O)CNC(=S)NC(=O)c1ccc(C(C)(C)C)cc1 | 25.4 (≈ 82.4 µM)
CC(C)(C)c1ccc(N2C(=N)SCC2=O)cc1 | 15.8 (≈ 63.6 µM)
Cc1c(C(=O)Nc2ccc3c(c2)OCCO3)cnn1C | > 41
Cc1cc(C)cc(NC(=O)c2cccc(N3C(=O)C4C5C=CC(C5)C4C3=O)c2)c1 (centres undefined) | < 0.4
CSc1cc(C)c(OCC(=O)Nc2ccc(NC(C)=O)cc2)c(C)c1 | 4.4 (≈ 12.3 µM)
CC(C)N(Cc1ccccc1)C(=O)COc1ccccc1 | 36.6 (≈ 129 µM)
Cc1ccc(NC(=O)COC(=O)C2(CC(=O)NC(C)(C)C)CCCC2)cc1C | 2.5 (≈ 6.43 µM)
CN1C(N)=NC(=O)/C1=C\c1ccc(Br)cc1 | 33.7 (≈ 120 µM)
CCOC(=O)C1(Cc2ccccc2)CCCN(C(=O)C=C(C)C)C1 (centres undefined) | 46.8 (≈ 142 µM)
O=C(CCCc1ccccc1)Nc1ccccc1C(F)(F)F | 5.1 (≈ 16.6 µM)
CC(=O)Nc1ccc2nc(NC(=O)c3ccc([N+](=O)[O-])o3)sc2c1 | 4 (≈ 11.5 µM)
COC(=O)c1ccc(CN2C(=O)NC(CC(C)C)C2=O)cc1 (centres undefined) | > 45.7
O=C(COC(=O)/C=C/c1ccccc1)NCCc1ccc(F)cc1 | 3.5 (≈ 10.7 µM)
Cc1ccc(SCC(=O)N(C)C2CCS(=O)(=O)C2)c(C)c1 (centres undefined) | > 49.1
N#CCc1ccc(OC(=O)c2cnccc2C(F)(F)F)cc1 | 13.6 (≈ 44.4 µM)
Cc1ccc2nc(-c3ccncc3)cc(C(=O)Nc3ccncc3)c2c1 | 3.5 (≈ 10.3 µM)
O=C(COC(=O)c1ccc[nH]c1=O)NC1CCCCCCC1 | 41.5 (≈ 135 µM)
CCc1ccc(CNC(=O)CCc2cn(C)c3ccccc23)cc1 | 1.2 (≈ 3.74 µM)
C=CCOc1ccc(/C=C2/C(=O)ON=C2C)cc1OCC | 28.3 (≈ 98.5 µM)
CC(C)(C)NS(=O)(=O)c1ccc(NC(=O)C2CCCO2)cc1 (centres undefined) | 43.7 (≈ 134 µM)
CC(C)NC(=O)COc1nncc2ccccc12 | > 36.8
Cc1cccc(NC(=O)CNC(=O)c2cccs2)n1 | > 41.3
CCOC(=O)C1=C(C)OC(N)=C(C#N)C1c1cccs1 (centres undefined) | 17.1 (≈ 58.9 µM)
CC(C)(C)C(=O)NC1CCSC1=O (centres undefined) | > 30.2

Structure (SMILES) | solubility kinetic [µg/mL]
O=[N+]([O-])c1ccccc1/C=N/OCc1ccccc1 | 2.6 (≈ 10.1 µM)
N=C1C=CC=C2C1=NC1(CCCCC1)N2O | > 32.6
Cc1ccc(Sc2ncccc2C(N)=O)cc1 | > 36.6
CN1CCN(Cc2c(F)cccc2Cl)CC1 | 24.2 (≈ 99.7 µM)
O=C(CCc1ccccc1)Nc1cccc(S(=O)(=O)N2CCOCC2)c1 | 50.6 (≈ 135 µM)
O=C(CNC1CCCCC1)Nc1ccc(Cl)cc1 | 38 (≈ 142 µM)
Cc1cccc(C(=O)OCC(=O)NC2CC2)c1O | > 37.4
Nc1nc(Nc2ccc(Cl)cc2)nc(NCCO)c1[N+](=O)[O-] | 3.1 (≈ 9.55 µM)
Cc1sc2ncnc(NCC(O)c3ccc([N+](=O)[O-])cc3)c2c1C (centres undefined) | 5.5 (≈ 16 µM)
Cc1ccc(-c2nc3ccccc3nc2Cl)cc1 | < 0.3
C=CCN(c1ccccc1)S(=O)(=O)c1cccc2cccnc12 | 34.9 (≈ 108 µM)
N/C(=N\OC(=O)c1ccc(Cl)c(Cl)c1)c1cccc(CSc2ccccn2)c1 | 0.9 (≈ 2.08 µM)
CCOC(=O)/C(=C\c1ccc(OC)c(OC)c1)C(=O)c1cccnc1 | > 51.2
Nc1nc(CCl)nc(Nc2ccc3ccccc3c2)n1 | 29.3 (≈ 103 µM)
COC(=O)c1cc2ccccc2n1S(=O)(=O)c1ccccc1 | < 0.7
CC(C)N1CCN(CCCc2ccccc2)CC1CCO (centres undefined) | > 43.6
CSCC[C@H](NC(=O)c1cccc(S(=O)(=O)N2CCCCCC2)c1)c1nc2ccccc2[nH]1 | 2.5 (≈ 5.14 µM)
S=c1[nH]c2ccc(Cc3ccc4[nH]c(=S)[nH]c4c3)cc2[nH]1 | 1.7 (≈ 5.44 µM)
O=C(CN1C(=O)NC2(CCCC2)C1=O)Nc1cccc(Cl)c1 | > 48.3
CO/N=C/C(c1ccc(Cl)nc1)S(=O)(=O)c1ccccc1 (centres undefined) | > 48.7
Cc1nn(C)c(Cl)c1CN1CCN(C2CCCC2)C(CCO)C1 (centres undefined) | > 51.1
CC(=O)c1cccc(N2C(=O)CC(N3CCN(S(=O)(=O)c4ccccc4F)CC3)C2=O)c1 (centres undefined) | > 68.9
Cc1ccc(NCCC(=O)c2cccs2)cc1 | 17.9 (≈ 73 µM)
